Results: patent publication US20250340552A1, “COMPOUNDS, COMPOSITIONS AND METHODS OF TREATING DISORDERS” (HOTSPOT THERAPEUTICS, INC., priority 2022, published 2025)
Read-outs that look alike come from different tables or passages of the source.

Molecular target: T1, Cbl-B (Homo sapiens, UniProt Q13191)
T1 construct: MSD-Based Assay for Degradation of Cbl-B in THP-1 Cells; endogenous in cells; host or cells: THP-1 (title) / Jurkat (protocol text)
Test: MSD-based assay for degradation of Cbl-B in THP-1 cells
Format: cell-based
Method: MSD-Based Assay for Degradation of Cbl-B in THP-1 Cells
Assay plates were then shaken at 600 rpm for 5 minutes, followed by incubation for 24 hours in the 37° C. TC incubator. […] Cell debris was then spun down at maximum speed (about 3200 g) for 30 min and lysates frozen in the −80° C. fridge. Meanwhile, MSD plates (L15XA-3) were coated overnight at 4° C. with 1 ug/mL capture antibody (Anti-Cbl-B antibody, 246C5a and Mouse mAB, ab54362). […] Blocking buffer was 3% Blocker A (MSD, R93BA-4) in TBST. Plates were washed 3× with 150 ul/well of 1×TBST and sample lysates (70 ul/well) then added, followed by shaking for 1 hr at RT, 600 rpm. […] Plates were again washed 3× with 150 ul/well of 1×TBST, followed by addition of Secondary Detection antibody, SULFO-TAG anti-species antibody (Anti Rabbit Antibody (R32AB-5) MSD, R32AB-1) at a final concentration of 1 ug/ml and 25 uL/well, followed by shaking for 1 hr at RT, 600 rpm. Plates were again washed 3× with 150 ul/well of 1×TBST, followed by addition of 1×MSD reading buffer (MSD, R92TC-2), 150 ul/well, diluted from 4× with water.
Compound Dmax were binned into A through D as follows: A indicates >70%, B indicates 50-70%, C indicates 30-50%, D indicates <30%.

[1] = Cbl-B degradation, Jurkat cells seeded (heading: THP-1 cells), 24 hours incubation, MSD readout
[2] = Cbl-B degradation, Jurkat cells seeded (heading: THP-1 cells), 24 hours incubation, MSD readout, read-out: Dmax

T1 sequence (Q13191 whole entry): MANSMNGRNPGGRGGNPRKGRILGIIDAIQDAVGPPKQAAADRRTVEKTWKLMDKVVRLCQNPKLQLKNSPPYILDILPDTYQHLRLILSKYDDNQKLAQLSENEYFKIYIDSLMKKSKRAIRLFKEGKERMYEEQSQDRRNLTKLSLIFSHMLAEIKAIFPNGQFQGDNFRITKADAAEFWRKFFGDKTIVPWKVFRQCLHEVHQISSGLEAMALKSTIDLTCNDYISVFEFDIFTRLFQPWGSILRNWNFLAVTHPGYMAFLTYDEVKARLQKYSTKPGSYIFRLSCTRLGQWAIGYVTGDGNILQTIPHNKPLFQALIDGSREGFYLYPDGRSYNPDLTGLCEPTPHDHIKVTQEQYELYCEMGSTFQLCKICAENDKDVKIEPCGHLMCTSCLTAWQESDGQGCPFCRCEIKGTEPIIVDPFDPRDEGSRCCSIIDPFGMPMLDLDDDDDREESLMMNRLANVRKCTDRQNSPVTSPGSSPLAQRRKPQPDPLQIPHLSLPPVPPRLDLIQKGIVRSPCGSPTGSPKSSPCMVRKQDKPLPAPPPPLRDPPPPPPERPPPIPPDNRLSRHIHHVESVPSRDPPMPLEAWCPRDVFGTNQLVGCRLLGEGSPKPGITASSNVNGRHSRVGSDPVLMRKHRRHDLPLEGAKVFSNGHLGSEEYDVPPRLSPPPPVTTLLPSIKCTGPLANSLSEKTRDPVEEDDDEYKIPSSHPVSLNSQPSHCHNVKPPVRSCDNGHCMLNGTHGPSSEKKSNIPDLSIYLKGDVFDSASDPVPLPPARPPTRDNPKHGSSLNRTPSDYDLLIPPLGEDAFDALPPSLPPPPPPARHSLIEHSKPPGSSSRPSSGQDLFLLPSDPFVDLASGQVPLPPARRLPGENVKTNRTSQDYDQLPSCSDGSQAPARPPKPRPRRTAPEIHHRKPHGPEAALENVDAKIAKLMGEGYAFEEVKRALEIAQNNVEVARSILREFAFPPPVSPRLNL

Row | Compound | DC50 [1] [nM] | Dmax [2] [%] | Dmax (THP-1) [%]
1 | CN(CCOC1CCN(Cc2cc(C(F)(F)F)c3cn(-c4cccc([C@H](c5nncn5C)C5CCC5)c4)c(=O)n3c2)CC1)C(=O)c1ccc(N2CC3CC(C2)N3c2ccc3c(c2)CN([C@@H]2CCC(=O)NC2=O)C3=O)cc1 (single isomer, unassigned) [Compound 89] | 1000 to 10000 |  | 30 to 50
2 | CN(CCOC1CCN(Cc2cc(C(F)(F)F)c3cn(-c4cccc([C@H](c5nncn5C)C5CCC5)c4)c(=O)n3c2)CC1)C(=O)c1ccc(N2CC3CC(C2)N3c2ccc3c(c2)CN([C@H]2CCC(=O)NC2=O)C3=O)cc1 (single isomer, unassigned) [Compound 90] | 1000 to 10000 | 30 to 50 | 
3 | Cn1cnnc1[C@@H](c1cccc(-n2cc3c(C(F)(F)F)cc(CN4CCC(OCc5ccc(CN6CCN(c7ccc8c(c7)CN([C@@H]7CCC(=O)NC7=O)C8=O)CC6)cc5)CC4)cn3c2=O)c1)C1CCC1 (single isomer, unassigned) [Compound 91] | 300 to 1000 |  | 30 to 50
4 | Cn1cnnc1CC1(c2cccc(-n3cc4c(C(F)(F)F)cc(CN5CCC(OCc6ccc(CN7CCN(c8ccc9c(c8)CN([C@@H]8CCC(=O)NC8=O)C9=O)CC7)cc6)CC5)cn4c3=O)c2)COC1 (single isomer, unassigned) [Compound 93] | 30 to 300 | 50 to 70 | 
5 | Cn1cnnc1[C@@H](c1cccc(-n2cc3c(C(F)(F)F)cc(-c4nccn4CCOCCN4CCC(CN5CCN(c6ccc7c(c6)CN([C@H]6CCC(=O)NC6=O)C7=O)CC5)CC4)cn3c2=O)c1)C1CCC1 (single isomer, unassigned) [Compound 98] | > 10000 | < 30 | 
6 | Cn1cnnc1CC1(c2cccc(-n3cc4c(C(F)(F)F)cc(-c5nccn5CCOCCN5CCC(CN6CCN(c7ccc8c(c7)CN([C@H]7CCC(=O)NC7=O)C8=O)CC6)CC5)cn4c3=O)c2)COC1 (single isomer, unassigned) [Compound 100] | > 10000 | < 30 | 
7 | CN(CCOC1CCN(Cc2cc(C(F)(F)F)c3cn(-c4cccc([C@H](c5nncn5C)C5CCC5)c4)c(=O)n3c2)CC1)C(=O)c1ccc(C2CCN(c3ccc4c(c3)CN([C@@H]3CCC(=O)NC3=O)C4=O)CC2)cc1 (single isomer, unassigned) [Compound 107] | 30 to 300 |  | 50 to 70
8 | Cn1cnnc1[C@@H](c1cccc(-n2cc3c(C(F)(F)F)cc(CN4CCC(OCCc5ccc(CN6CCN(c7ccc8c(c7)CN([C@@H]7CCC(=O)NC7=O)C8=O)CC6)cc5)CC4)cn3c2=O)c1)C1CCC1 (single isomer, unassigned) [Compound 115] | > 10000 | < 30 | 
9 | CN(CC1CCN(Cc2cc(C(F)(F)F)c3cn(-c4cccc([C@H](c5nncn5C)C5CCC5)c4)c(=O)n3c2)CC1)C(=O)c1ccc(N2CCN(c3ccc4c(c3)CN([C@@H]3CCC(=O)NC3=O)C4=O)CC2)cc1 (single isomer, unassigned) [Compound 117] | 1000 to 10000 | 30 to 50 | 
10 | CN(CCC(=O)N1CCC(CN2CCN(c3ccc4c(c3)CN([C@@H]3CCC(=O)NC3=O)C4=O)CC2)CC1)Cc1cc(C(F)(F)F)c2cn(-c3cccc([C@H](c4nncn4C)C4CCC4)c3)c(=O)n2c1 (single isomer, unassigned) [Compound 119] | > 10000 | < 30 | 

More lines, main results first:

Row | DC50 [1] [nM] | Dmax [2] [%] | Compound | Dmax (THP-1) [%]
11 | < 30 | > 70 | Cn1cnnc1[C@@H](c1cccc(-n2cc3c(C(F)(F)F)cc(CN4CCC(OCc5ccc(CN6CCN(c7ccc8c(c7)CN([C@H]7CCC(=O)NC7=O)C8=O)CC6)cc5)CC4)cn3c2=O)c1)C1CCC1 (single isomer, unassigned) [Compound 92] | 
12 | < 30 | > 70 | Cn1cnnc1CC1(c2cccc(-n3cc4c(C(F)(F)F)cc(CN5CCC(OCc6ccc(CN7CCN(c8ccc9c(c8)CN([C@H]8CCC(=O)NC8=O)C9=O)CC7)cc6)CC5)cn4c3=O)c2)COC1 (single isomer, unassigned) [Compound 94] | 
13 | 300 to 1000 |  | CN(CCO[C@@H]1CCCN(Cc2cc(C(F)(F)F)c3cn(-c4cccc([C@H](c5nncn5C)C5CCC5)c4)c(=O)n3c2)C1)C(=O)c1ccc(N2CCN(c3ccc4c(c3)CN([C@@H]3CCC(=O)NC3=O)C4=O)CC2)cc1 (single isomer, unassigned) [Compound 103] | 
14 | 30 to 300 |  | CN(CCO[C@H]1CCCN(Cc2cc(C(F)(F)F)c3cn(-c4cccc([C@H](c5nncn5C)C5CCC5)c4)c(=O)n3c2)C1)C(=O)c1ccc(N2CCN(c3ccc4c(c3)CN([C@@H]3CCC(=O)NC3=O)C4=O)CC2)cc1 (single isomer, unassigned) [Compound 105] | 
15 | < 30 | 50 to 70 | CN(CCOC1CCN(Cc2cc(C(F)(F)F)c3cn(-c4cccc([C@H](c5nncn5C)C5CCC5)c4)c(=O)n3c2)CC1)C(=O)c1ccc(C2CCN(c3ccc4c(c3)CN([C@H]3CCC(=O)NC3=O)C4=O)CC2)cc1 (single isomer, unassigned) [Compound 108] | 
16 | 30 to 300 |  | Cn1cnnc1[C@@H](c1cccc(-n2cc3c(C(F)(F)F)cc(CN4CCC(CCN5CCC(CN6CCN(c7ccc8c(c7)CN([C@@H]7CCC(=O)NC7=O)C8=O)CC6)CC5)CC4)cn3c2=O)c1)C1CCC1 (single isomer, unassigned) [Compound 109] | 
17 | < 30 | > 70 | Cn1cnnc1[C@@H](c1cccc(-n2cc3c(C(F)(F)F)cc(CN4CCC(CCN5CCC(CN6CCN(c7ccc8c(c7)CN([C@H]7CCC(=O)NC7=O)C8=O)CC6)CC5)CC4)cn3c2=O)c1)C1CCC1 (single isomer, unassigned) [Compound 110] | 
18 | 30 to 300 | 50 to 70 | Cn1cnnc1[C@@H](c1cccc(-n2cc3c(C(F)(F)F)cc(CN4CCC(CC(=O)N5CCC(CN6CCN(c7ccc8c(c7)CN([C@@H]7CCC(=O)NC7=O)C8=O)CC6)CC5)CC4)cn3c2=O)c1)C1CCC1 (single isomer, unassigned) [Compound 111] | 
19 | < 30 | > 70 | Cn1cnnc1[C@@H](c1cccc(-n2cc3c(C(F)(F)F)cc(CN4CCC(CC(=O)N5CCC(CN6CCN(c7ccc8c(c7)CN([C@H]7CCC(=O)NC7=O)C8=O)CC6)CC5)CC4)cn3c2=O)c1)C1CCC1 (single isomer, unassigned) [Compound 112] | 
20 | < 30 | > 70 | CN(CC1CCN(Cc2cc(C(F)(F)F)c3cn(-c4cccc([C@H](c5nncn5C)C5CCC5)c4)c(=O)n3c2)CC1)C(=O)c1ccc(N2CCN(c3ccc4c(c3)CN([C@H]3CCC(=O)NC3=O)C4=O)CC2)cc1 (single isomer, unassigned) [Compound 118] | 
21 | 30 to 300 | 50 to 70 | CN(CCC(=O)N1CCC(CN2CCN(c3ccc4c(c3)CN([C@H]3CCC(=O)NC3=O)C4=O)CC2)CC1)Cc1cc(C(F)(F)F)c2cn(-c3cccc([C@H](c4nncn4C)C4CCC4)c3)c(=O)n2c1 (single isomer, unassigned) [Compound 120] | 
22 | 30 to 300 | 50 to 70 | Cn1cnnc1[C@@H](c1cccc(-n2cc3c(C(F)(F)F)cc(CN4CCN(CC(=O)N5CCC(CN6CCN(c7ccc8c(c7)CN([C@@H]7CCC(=O)NC7=O)C8=O)CC6)CC5)CC4)cn3c2=O)c1)C1CCC1 (single isomer, unassigned) [Compound 121] | 
23 | < 30 | > 70 | Cn1cnnc1[C@@H](c1cccc(-n2cc3c(C(F)(F)F)cc(CN4CCN(CC(=O)N5CCC(CN6CCN(c7ccc8c(c7)CN([C@H]7CCC(=O)NC7=O)C8=O)CC6)CC5)CC4)cn3c2=O)c1)C1CCC1 (single isomer, unassigned) [Compound 122] | 
